Assay results published in paper PMC4505723 (Journal of the American Chemical Society, 2015).

System: L. lactis HP cells
Test: liquid media growth assays with L. lactis HP cells
Type: cell-based
Details: liquid media growth assay (Figure S4)

Row | Substance | IC50
1 | nukacin ISK-1 | 0.4 ± 0.08 µM
2 | lacticin 481 [wt lacticin 481] | 0.1 ± 0.025 µM
